Patent publication US10005736B1, “Pyridine and pyrimidine derivatives” (Hoffmann-La Roche Inc., priority 2015, dated 2018)

Assays:
human EAAT3 = target: T1, human EAAT3 (Homo sapiens, UniProt P43005); assay: FLIPR Membrane Potential (FMP) assay, antagonist potency at human EAAT3; type: cell-based; details: HEK-293 cells stably expressing human EAAT3; L-glutamate as agonist at EC80; antagonists applied 15 min before; Kb by Cheng-Prusoff from IC50
T1 construct: expressed in transfected cells; host or cells: HEK-293
T1 sequence (P43005 1-524): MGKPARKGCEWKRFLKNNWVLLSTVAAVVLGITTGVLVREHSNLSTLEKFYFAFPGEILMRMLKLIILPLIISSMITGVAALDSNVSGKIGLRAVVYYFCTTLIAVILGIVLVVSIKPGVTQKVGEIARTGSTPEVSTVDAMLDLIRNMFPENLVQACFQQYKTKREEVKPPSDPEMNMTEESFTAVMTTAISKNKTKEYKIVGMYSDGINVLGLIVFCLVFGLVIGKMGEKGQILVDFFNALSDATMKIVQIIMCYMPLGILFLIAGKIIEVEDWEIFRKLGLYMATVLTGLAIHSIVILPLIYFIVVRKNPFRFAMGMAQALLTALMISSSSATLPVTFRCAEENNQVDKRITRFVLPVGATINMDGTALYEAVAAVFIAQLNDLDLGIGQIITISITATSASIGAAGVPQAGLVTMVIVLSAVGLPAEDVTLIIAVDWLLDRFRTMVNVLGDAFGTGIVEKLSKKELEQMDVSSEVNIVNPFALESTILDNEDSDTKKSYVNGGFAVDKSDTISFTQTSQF
Experimental: The FLIPR Membrane Potential (FMP) Assay
HEK-293 cells stably expressing human EAAT3 were seeded at 55 000 cells/well in growth medium (DMEM glutamate free (Invitrogen 11960-044), 1% Pen Strep (10 ml/1 GIBCO BRL N^o 15140-023), 10% FCS non dialysed heat inactivated, 5 mg/l puromycin) in poly-D-lysine treated 96-well black microtiter plates with clear-bottom. After 24 h, the growth medium was removed and […] of Krebs buffer (140 mM NaCl, 4.7 mM KCl, 2.5 mM CaCl2, 1.2 mM MgCl2, 11 mM HEPES, 10 mM D-glucose, pH=7.4) added. The cells were then loaded by adding 100 μl/well FMP assay dye (FLIPR Membrane Potential assay reagent, Molecular Devices). The 96-well plates were then incubated at 37° C. for 1 h. The depolarization of the cells will cause more dye to enter in the cells, where it will bind to intracellular proteins and lipids and cause an increase in the fluorescence signal. Antagonist potency at human EAAT3 was determined by using L-glutamate as agonist at a concentration which gives 80% of the maximum response. The antagonists were applied 15 min before the application of the agonist L-glutamate. The assays were performed at room temperature and measurements done by using a Fluorometric Imaging Plate Reader (FLIPR, Molecular Devices) and filter #2. Responses were measured as peak increase in fluorescence minus basal (i.e. fluorescence without addition of L-glutamate). Kb was determined using the Cheng-Prusoff equation Kb=IC50/[1+(A/EC50)], where IC50 is the concentration of the antagonist producing 50% inhibition, A is the concentration of the agonist against which the IC50 is being determined (at EC80) and EC50 is the concentration of the agonist producing 50% […].

Kb (human EAAT3) [nM] | melting point [°C] | Compound
310 | – | CC(C)c1ncncc1-c1cc(C(=O)NC2(C)CCS(=O)(=O)C2)cc(-c2ccc(Cl)cc2)c1 (racemic) [Example 12, (RS)-3-(4-Chlorophenyl)-N-(3-methyl-1,1-dioxothiolan-3-yl)-5-(4-propan-2-ylpyrimidin-5-yl)-benzamide]
510 | – | Cc1ncccc1-c1cc(C(=O)NC2(C)CCS(=O)(=O)C2)cc(-c2ccc(Cl)cc2)c1 (racemic) [Example 13, (RS)-3-(4-Chlorophenyl)-N-(3-methyl-1,1-dioxothiolan-3-yl)-5-(2-methyl-pyridin-3-yl)-benzamide]
325 | – | CCC(C)(C)NC(=O)c1cc(-c2ccc(C)cc2)cc(-c2cccnc2)c1 [Example 1, N-(2-Methylbutan-2-yl)-3-(4-methylphenyl)-5-pyridin-3-ylbenzamide]
220 | – | CCC(C)(C)NC(=O)c1cc(-c2ccc(C)cc2)cc(-c2cncnc2)c1 [Example 2, N-(2-Methylbutan-2-yl)-3-(4-methylphenyl)-5-pyrimidin-5-ylbenzamide]
230 | – | CCC(C)(C)NC(=O)c1cc(-c2ccc(C)cc2)cc(-c2cncnc2C(C)C)c1 [Example 3, N-(2-Methylbutan-2-yl)-3-(4-methylphenyl)-5-(4-propan-2-ylpyrimidin-5-yl)-benzamide]
290 | – | CCC(C)(C)NC(=O)c1cc(-c2ccc(C)cc2)cc(-c2cnccc2C)c1 [Example 4, N-(2-Methylbutan-2-yl)-3-(4-methylphenyl)-5-(4-methylpyridin-3-yl)-benzamide]
250 | – | CCC(C)(C)NC(=O)c1cc(-c2ccc(C)cc2)cc(-c2cccnc2C)c1 [Example 5, N-(2-Methylbutan-2-yl)-3-(4-methylphenyl)-5-(2-methylpyridin-3-yl)-benzamide]
380 | – | CCC(C)(C)NC(=O)c1cc(-c2ccc(C)cc2)cc(-c2cnccc2C(C)C)c1 [Example 6, N-(2-Methylbutan-2-yl)-3-(4-methylphenyl)-5-(4-propan-2-ylpyridin-3-yl)-benzamide]
310 | – | Cc1ccncc1-c1cc(C(=O)NC(C)(C)C)cc(-c2ccc(Cl)cc2)c1 [Example 7, N-tert-Butyl-3-(4-chlorophenyl)-5-(4-methylpyridin-3-yl)-benzamide]
350 | 177 | CC(C)(C)NC(=O)c1cc(-c2ccc(Cl)cc2)cc(-c2cccnc2)c1 [Example 8, N-tert-Butyl-3-(4-chlorophenyl)-5-pyridin-3-ylbenzamide]
540 | 148 | CC(C)c1ccncc1-c1cc(C(=O)NC(C)(C)C)cc(-c2ccc(Cl)cc2)c1 [Example 9, N-tert-Butyl-3-(4-chlorophenyl)-5-(4-propan-2-ylpyridin-3-yl)-benzamide]
270 | 195 | CC(C)(C)NC(=O)c1cc(-c2ccc(Cl)cc2)cc(-c2cncnc2)c1 [Example 10, N-tert-Butyl-3-(4-chlorophenyl)-5-pyrimidin-5-ylbenzamide]
230 | 182 | CC(C)c1ncncc1-c1cc(C(=O)NC(C)(C)C)cc(-c2ccc(Cl)cc2)c1 [Example 11, N-tert-Butyl-3-(4-chlorophenyl)-5-(4-propan-2-ylpyrimidin-5-yl)-benzamide]
570 | – | CCC(C)(C)NC(=O)c1cc(-c2ccc(C)cc2)cc(-c2cccnc2C(C)C)c1 [Example 14, N-(2-Methylbutan-2-yl)-3-(4-methylphenyl)-5-(2-propan-2-ylpyridin-3-yl)-benzamide]
630 | – | CC(C)c1ncccc1-c1cc(C(=O)NC(C)(C)C)cc(-c2ccc(Cl)cc2)c1 [Example 15, N-tert-Butyl-3-(4-chlorophenyl)-5-(2-propan-2-ylpyridin-3-yl)-benzamide]
420 | – | CC(C)c1ncncc1-c1cc(C(=O)NC(C)(C)C2CC2)cc(-c2ccc(Cl)cc2)c1 [Example 16, 3-(4-Chlorophenyl)-N-(2-cyclopropylpropan-2-yl)-5-(4-propan-2-ylpyrimidin-5-yl)-benzamide]

Kb (human EAAT3) [nM] | melting point [°C] | Compound
640 | – | Cc1ncccc1-c1cc(C(=O)NC(C)(C)C2CC2)cc(-c2ccc(Cl)cc2)c1 [Example 17, 3-(4-Chlorophenyl)-N-(2-cyclopropylpropan-2-yl)-5-(2-methylpyridin-3-yl)-benzamide]
250 | 170 | CC(C)c1ncncc1-c1cc(C(=O)NC(C)(C)C(F)(F)F)cc(-c2ccc(Cl)cc2)c1 [Example 18, 3-(4-Chlorophenyl)-5-(4-propan-2-ylpyrimidin-5-yl)-N-(1,1,1-trifluoro-2-methylpropan-2-yl)-benzamide]
340 | – | Cc1ncccc1-c1cc(C(=O)NC(C)(C)C(F)(F)F)cc(-c2ccc(Cl)cc2)c1 [Example 19, 3-(4-Chlorophenyl)-5-(2-methylpyridin-3-yl)-N-(1,1,1-trifluoro-2-methylpropan-2-yl)-benzamide]
81 | 79 | CC(C)c1ncncc1-c1cc(C(=O)NC(C)(C)C)cc(-c2ccc(F)cc2)c1 [Example 20, N-tert-Butyl-3-(4-fluorophenyl)-5-(4-propan-2-ylpyrimidin-5-yl)-benzamide]
200 | 83 | Cc1ccncc1-c1cc(C(=O)NC(C)(C)C)cc(-c2ccc(F)cc2)c1 [Example 21, N-tert-Butyl-3-(4-fluorophenyl)-5-(4-methylpyridin-3-yl)-benzamide]
57 | 74 | CC(C)c1ncncc1-c1cc(C(=O)NC(C)(C)C2CC2)cc(-c2ccc(F)cc2)c1 [Example 22, N-(2-Cyclopropylpropan-2-yl)-3-(4-fluorophenyl)-5-(4-propan-2-ylpyrimidin-5-yl)-benzamide]
– | 192 | Cc1ncncc1-c1cc(C(=O)NC(C)(C)C)cc(-c2ccc(Cl)cc2)c1 [Example 41, N-tert-Butyl-3-(4-chlorophenyl)-5-(4-methyl-pyrimidin-5-yl)-benzamide]
– | 108 | CC(C)(C)NC(=O)c1cc(-c2ccc(Cl)cc2)cc(-c2cncnc2C(C)(C)C)c1 [Example 42, N-tert-Butyl-3-(4-tert-butyl-pyrimidin-5-yl)-5-(4-chlorophenyl)-benzamide]
– | 86 | CC(C)c1ncncc1-c1cc(C(=O)NC(C)(C)CO)cc(-c2ccc(Cl)cc2)c1 [Example 43, 3-(4-Chlorophenyl)-N-(1-hydroxy-2-methylpropan-2-yl)-5-(4-propan-2-yl-pyrimidin-5-yl)-benzamide]
– | 63 | CC(C)c1ncncc1-c1cc(C(=O)NC(C)(C)CO)cc(-c2ccc(F)cc2)c1 [Example 44, 3-(4-Fluorophenyl)-N-(1-hydroxy-2-methylpropan-2-yl)-5-(4-propan-2-yl-pyrimidin-5-yl)-benzamide]
– | 80 | CC(C)c1ncncc1-c1cc(C(=O)NC(C)(C)CO)cc(-c2ccc(C(F)(F)F)cc2)c1 [Example 45, N-(1-Hydroxy-2-methylpropan-2-yl)-3-(4-propan-2-yl-pyrimidin-5-yl)-5-[4-(trifluoromethyl)-phenyl]-benzamide]
– | 99 | CC(C)(C)NC(=O)c1cc(-c2ccc(F)c(F)c2)cc(-c2cncnc2C(C)(C)C)c1 [Example 48, N-tert-Butyl-3-(4-tert-butyl-primidin-5-yl)-5-(3,4-difluorophenyl)-benzamide]
– | 91 | CC(C)(C)NC(=O)c1cc(-c2ccc(C(F)(F)F)cc2)cc(-c2cncnc2C(C)(C)C)c1 [Example 49, N-tert-Butyl-3-(4-tert-butyl-pyrimidin-5-yl)-5-[4-(trifluoromethyl)-phenyl]-benzamide]
– | 102 | CC(C)(C)NC(=O)c1cc(-c2ccc(F)cc2)cc(-c2cncnc2C(C)(C)C)c1 [Example 51, N-tert-Butyl-3-(4-tert-butyl-pyrimidin-5-yl)-5-(4-fluorophenyl)-benziimide]
– | 63.5 | CC(C)(C)NC(=O)c1cc(-c2ccc(Cl)cc2)cc(-c2cnccc2C(C)(C)C)c1 [Example 53, N-tert-Butyl-3-(4-tert-butylpyridin-3-yl)-5-(4-chlorophenyl)-benzamide]
